In patent US3950513A, “Process of stabilizing therapeutically useful plasmin solutions” (Novo Terapeutisk Laboratorium A/S, priority 1969, dated 1976):
“Also recorded” adds a separate entry of the source. Where two headings read alike, the source gives them in different places. Where a SMILES comes first, the peptide text is derived from it.

Assays:
[1] = molecular target: T1, plasmin originating from swine blood (Sus scrofa, UniProt P06867); assay: Stabilizing effect of amino acids on plasmin solution, residual plasmin activity (casein) on storage; format: biochemical; conditions: 35.5°C, employed concentration 0.25 millimole per plasmin unit
T1 construct: from tissue; host or cells: swine blood
Description: (§1) Usually the activity of plasmin solutions is expressed in the number of plasmin units per milliliter. However, no definition of a plasmin unit has until now been internationally adopted. Here and in the following one plasmin unit means the amount of plasmin causing in 20 minutes the formation of decomposition products being soluble in perchloric acid and having an extinction of 1 unit at 275 mμ under the following experimental conditions:
(§2) By the addition of the perchloric acid a precipitation takes place, and the two test tubes now stand for 20 minutes whereafter filtration two times through filtering paper (J. H. Munktells unrivalled Genuine Swedish Filtering Paper No. 0.9 cm) is carried out. The extinction of the two solutions is thereafter measured at 275 mμ in a Beckman D U Spectrophotometer (1 cm quartz cuvette), the value of the sample having stood for 2 minutes being used as blind value.
If not, a saturated amino acid solution is employed.

[2] = molecular target: T2, plasmin solution from swine blood (Sus scrofa, UniProt P06867); assay: Plasmin activity at high amino acid concentration and after dilution (reversible inactivation); format: biochemical
T2 construct: from tissue; host or cells: swine blood
Description: as §1
as §2, with “1 […] OF THE PLASMIN SOLUTION THE ACTIVITY OF WHICH IS TO BE DETERMINED AND THE PH of which is 7.5 is added to two test tubes each containing in 0.4 molar phosphate buffer (pH 7.50) 1 milliliter of a 3 per cent's solution of Hammarsten Casein said solution having been preheated to 35.5°C. […] By” for “By”
By way of illustration reference may be made to the following experiments:
a. A plasmin solution from swine blood and containing about 0.4 plasmin unit per milliliter and 2 millimoles of L-lysine per plasmin unit is produced in phosphate buffer (pH 7.5) whereafter the plasmin activity of the mixture is determined and compared with the activity of the plasmin solution without the amino acid addition and the activity of the mixture is expressed in per cent of the activity of the unmixed plasmin solution. Thereafter a dilution of the solution is carried out expressed in the original volume of the plasmin solution divided by the volume of the plasmin solution after the dilution, and the activity of the diluted solutions is determined.

plasmin [3] = molecular target: T3, plasmin (Sus scrofa, UniProt P06867); format: biochemical, swine; conditions: for % activity after 120 min. at 25°C / % activity after 60 min. at 25°C: 0.3 plasmin units per ml
Description: as §1
as §2, with “1 […] THE PLASMIN SOLUTION THE ACTIVITY OF WHICH IS TO BE […] THE PH of which is 7.5 is added to two test tubes each containing in 0.4 molar phosphate buffer (pH 7.50) 1 […] a 3 per cent's solution of Hammarsten Casein said solution having been preheated to 35.5°C. […] By” for “By”
The stabilizing effect of a long series of amino acids has been examined in connection with plasmin originating from swine blood and dissolved in phosphate buffer (pH 7.5). […] If not, a saturated amino acid solution is employed.

plasmin [4] = molecular target: T3, plasmin; assay: Initial loss of plasmin on adjusting concentrated acidified solution to pH 7.5; format: biochemical; conditions: 10 plasmin units per ml adjusted to pH 7.5 at 25°C
From the text: In the tests referred to above use has been made of plasmin solutions having a plasmin content of 0.3 and 0.4 units, respectively, per milliliter. When using more concentrated solutions, e.g. containing 10 plasmin units per milliliter, an appreciable initial loss of plasmin will occur immediately by the adjustment of the pH-value from 2-3 up to neutral reaction unless amino acids are present in sufficient amounts. Thus, in the course of a few minutes an initial loss of 20 per cent may e.g. arise when an acidified plasmin solution containing 10 plasmin units per milliliter is adjusted to pH 7.5 at 25°C even if lysine is present in the solution in an amount of 0.002 millimole per plasmin unit. Such initial loss can, however, be avoided by increasing the amino acid concentration.

[5] = test system: partially purified plasmin from human plasma; conditions: cited from earlier work; for effect on autolysis of plasmin: neutral solutions, 37°C
plasmin [6] = molecular target: plasmin (Homo sapiens, UniProt P00747); conditions: plasmin about 0.047 to about 0.229 units per ml; cited from earlier work
[7] = Stability of plasmin solutions without amino acid
From the text: Further, it is possible to produce a sterile plasmin solution which is adjusted to pH 1 to 4. […] By mixing such solution before use with a sterile amino acid solution which has either been buffered with one of the normal acid-base-buffer systems or has a sufficient amino acid content, it is possible to obtain a neutral stable plasmin solution.

[8] = Solubility of plasmin in neutral aqueous solution; format: physicochemical; conditions: no amino acid
From the text: While a neutral solution of plasmin in water becomes turbid due to a precipitation of plasmin when the plasmin concentration is 0.01 unit and more per milliliter, it is possible by the addition of an amino acid to produce clear neutral plasmin solutions having a plasmin concentration up to 25 units per milliliter.

[9] = pH 7.5, read-out: Activity expressed in per cent of the total activity
[10] = 0.010 millimole L-lysine per plasmin unit
[11] = 0.021 millimole L-lysine per plasmin unit
[12] = 0.042 millimole L-lysine per plasmin unit

T3 sequence (P06867 97-579 limits assumed): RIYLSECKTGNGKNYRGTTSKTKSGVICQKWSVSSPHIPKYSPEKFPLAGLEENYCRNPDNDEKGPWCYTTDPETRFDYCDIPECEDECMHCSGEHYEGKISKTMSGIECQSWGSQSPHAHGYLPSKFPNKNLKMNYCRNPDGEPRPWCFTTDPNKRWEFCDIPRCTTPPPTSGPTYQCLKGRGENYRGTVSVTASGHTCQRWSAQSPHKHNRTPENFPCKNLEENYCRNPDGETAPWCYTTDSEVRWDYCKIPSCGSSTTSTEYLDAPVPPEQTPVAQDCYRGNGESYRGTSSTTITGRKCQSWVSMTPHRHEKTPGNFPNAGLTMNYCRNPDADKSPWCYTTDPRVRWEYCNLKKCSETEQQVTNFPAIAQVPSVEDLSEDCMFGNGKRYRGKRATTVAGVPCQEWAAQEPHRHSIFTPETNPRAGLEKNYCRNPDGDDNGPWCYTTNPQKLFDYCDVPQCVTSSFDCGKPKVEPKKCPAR
T3 sequence (P06867 580-809 limits assumed): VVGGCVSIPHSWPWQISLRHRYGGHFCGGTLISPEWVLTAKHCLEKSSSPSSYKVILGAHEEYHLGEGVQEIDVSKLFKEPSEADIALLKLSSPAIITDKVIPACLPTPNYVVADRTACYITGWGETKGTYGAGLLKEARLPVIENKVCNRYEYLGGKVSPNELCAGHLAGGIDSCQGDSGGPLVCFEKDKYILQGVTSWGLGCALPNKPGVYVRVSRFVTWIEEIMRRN
T2 sequence (P06867 97-579 limits assumed): as the sequence (P06867 97-579 limits assumed) above
T2 sequence (P06867 580-809 limits assumed): as the sequence (P06867 580-809 limits assumed) above
T1 sequence (P06867 97-579 limits assumed): as the sequence (P06867 97-579 limits assumed) above
T1 sequence (P06867 580-809 limits assumed): as the sequence (P06867 580-809 limits assumed) above

CSCCC(N)C(=O)O (racemic) [DL-methionine]
stabilizing effect (in words) [1]: possible to obtain a stabilizing effect

CN(CC(=O)O)C(=N)N [Creatine]
stabilizing effect (in words) [1]: considerably better than that of glycine and DL-valine

NCC(=O)O [Glycine]
stabilizing effect (in words) [1]: rather insignificant; also recorded: faintly stabilizing effect

NCC(=O)NCC(=O)O [Glycyl glycine] (H-Gly-Gly-OH)
stabilizing effect (in words) [1]: strongly stabilizing effect

N=C(N)NCC(=O)O [Guanidino acetic acid]
stabilizing effect (in words) [1]: considerably better than that of glycine and DL-valine

N[C@@H](CC(=O)O)C(=O)O [L(+)-aspartic acid]
stabilizing effect (in words) [1]: almost identical with that of glycine

O=C(O)[C@@H]1C[C@@H](O)CN1 [L(-)-hydroxyproline]
stabilizing effect (in words) [1]: limited stabilizing effect

O=C(O)[C@@H]1CCCN1 [L(-)-proline]
stabilizing effect (in words) [1]: limited stabilizing effect

NCCCC[C@H](N)C(=O)O [L-lysine]
reversibility of the inactivation by dilution ([2]; Table IV): reversible | activity at 160000 µM [2, 9]: 97% | activity at 320000 µM [2, 9]: 100% | activity at 480000 µM [2, 9]: 92% | activity at 640000 µM [2, 9]: 84% | activity at 800000 µM [2, 9]: 88% | lysine concentration above which it has an inactivating effect on the plasmin solution ([2]; plasmin concentration 1/2 unit per millimole lysine): above 0.32 millimole per ml | stabilizing effect (in words) [1]: strongly stabilizing effect | stabilizing effect (in words) ([1]; listed as lysine): most vigorous stabilizing effect | % activity after 120 min. at 25°C (plasmin [3]; 0.005 millimole L-lysine per plasmin unit, without lysine 70): 78% | % activity after 60 min. at 25°C (plasmin [3]; 0.005 millimole L-lysine per plasmin unit, without lysine 77): 88% | % activity after 60 min. at 25°C (plasmin [3]; [10]): 91% | % activity after 120 min. at 25°C (plasmin [3]; [10]): 84% | % activity after 60 min. at 25°C (plasmin [3]; [11]): 99% | % activity after 120 min. at 25°C (plasmin [3]; [11]): 91% | % activity after 60 min. at 25°C (plasmin [3]; [12]): 100% | % activity after 120 min. at 25°C (plasmin [3]; [12]): 99% | lysine concentration necessary to avoid a plasmin loss by standing for two hours (plasmin [3]; 25°C): 0.04 millimole per plasmin unit | lysine concentration sufficient to allow only a plasmin loss of about 20 per cent by standing for 2 hours (plasmin [3]; 25°C): about 0.005 millimole per plasmin unit | lysine concentration necessary to allow only a plasmin loss of about 20 per cent by standing for 2 hours (plasmin [3]; 35.5°C): about 0.1 millimole per plasmin unit | lysine concentration necessary to avoid a plasmin loss by standing for two hours (plasmin [3]; 35.5°C, plasmin concentration of 0.4 plasmin units per ml): above 0.25 millimole per plasmin unit | initial loss of plasmin in the course of a few minutes (plasmin [4]; lysine 0.002 millimole per plasmin unit): 20 per cent | initial loss of plasmin (plasmin [4]; lysine 0.04 millimole per plasmin unit): avoid completely an initial loss

CN [methylamine]
effect on autolysis of plasmin [5]: may inhibit this autolysis

NC(N)=O [urea]
effect on autolysis of plasmin [5]: may inhibit this autolysis

CC(=O)N[C@@H](CCCNC(=N)N)C(=O)O [α-N-acetyl-L-arginine]
stabilizing effect (in words) [1]: excellent stabilizing effect

NCCCC(=O)O [γ-amino butyric acid]
stabilizing effect (in words) [1]: stabilize considerably better than β-alanine

NCCCCCC(=O)O [ε-amino caproic acid]
activity at 800000 µM ([2]; Undiluted, 0.8 millimole amino acid per ml, 2 millimoles per plasmin unit, about 0.4 unit per ml, pH 7.5, read-out: Activity expressed in per cent of the total activity): 57% | activity at 160000 µM ([2]; pH 7.5, Dilution 1:5, 0.16 millimole amino acid per ml, read-out: Activity expressed in per cent of the total activity): 93% | activity at 320000 µM ([2]; pH 7.5, Dilution 2:5, 0.32 millimole amino acid per ml, read-out: Activity expressed in per cent of the total activity): 84% | activity at 480000 µM ([2]; pH 7.5, Dilution 3:5, 0.48 millimole amino acid per ml, read-out: Activity expressed in per cent of the total activity): 71% | activity at 640000 µM ([2]; pH 7.5, Dilution 4:5, 0.64 millimole amino acid per ml, read-out: Activity expressed in per cent of the total activity): 65% | stabilizing effect (in words) [1]: stabilize considerably better than β-alanine | stabilizing effect (in words) ([1]; listed as ε-amino caproic acids): strongly stabilizing effect | concentration at which it acts as an inhibitor of the action of plasmin (plasmin [6]): above 0.03 M | concentration at which it exhibits an enhancing effect on the action of plasmin (plasmin [6]): up to 0.02 M

B1: plasmin: proteolytic enzyme plasmin in aqueous solution without amino acid addition (protein, UniProt P00747 20-580; P00747 581-810, looked up)
Plasmin heavy chain A: EPLDDYVNTQGASLFSVTKKQLGAGSIEECAAKCEEDEEFTCRAFQYHSKEQQCVIMAENRKSSIIIRMRDVVLFEKKVYLSECKTGNGKNYRGTMSKTKNGITCQKWSSTSPHRPRFSPATHPSEGLEENYCRNPDNDPQGPWCYTTDPEKRYDYCDILECEEECMHCSGENYDGKISKTMSGLECQAWDSQSPHAHGYIPSKFPNKNLKKNYCRNPDRELRPWCFTTDPNKRWELCDIPRCTTPPPSSGPTYQCLKGTGENYRGNVAVTVSGHTCQHWSAQTPHTHNRTPENFPCKNLDENYCRNPDGKRAPWCHTTNSQVRWEYCKIPSCDSSPVSTEQLAPTAPPELTPVVQDCYHGDGQSYRGTSSTTTTGKKCQSWSSMTPHRHQKTPENYPNAGLTMNYCRNPDADKGPWCFTTDPSVRWEYCNLKKCSGTEASVVAPPPVVLLPDVETPSEEDCMFGNGKGYRGKRATTVTGTPCQDWAAQEPHRHSIFTPETNPRAGLEKNYCRNPDGDVGGPWCYTTNPRKLYDYCDVPQCAAPSFDCGKPQVEPKKCPGR
Plasmin light chain B: VVGGCVAHPHSWPWQVSLRTRFGMHFCGGTLISPEWVLTAAHCLEKSPRPSSYKVILGAHQEVNLEPHVQEIEVSRLFLEPTRKDIALLKLSSPAVITDKVIPACLPSPNYVVADRTECFITGWGETQGTFGAGLLKEAQLPVIENKVCNRYEFLNGRVQSTELCAGHLAGGTDSCQGDSGGPLVCFEKDKYILQGVTSWGLGCARPNKPGVYVRVSRFVTWIEGVMRNN
modifications: Plasmin
notes: proteolytic enzyme plasmin in aqueous solution without amino acid addition
plasmin concentration above which neutral solutions must be considered unstable ([7]; criterion: highest permissible loss 20 per cent in 2 hours at 25°C): more than 0.1 unit per milliliter | stability of acid sterile plasmin solution ([7]; pH 1 to 4, stored at 4°-5°C): stable for several months | stability of aqueous plasmin solution ([7]; pH-value of 2 to 3, temperatures up to 35°C): practically completely stable | stability in neutral solutions ([5]; rapid loss of proteolytic activity at 37°C): unstable | plasmin concentration at which a neutral solution in water becomes turbid due to precipitation of plasmin [8]: ≥ 0.01 unit per milliliter
